# Target: T1, SfGSTD1 (Spodoptera frugiperda, UniProt A0A9R0F5L2)
# T1 construct: gene LOC118269876; not XP_035440580.2, another SfGSTD1 of the literature that clusters with SeGSTD3
# T1 sequence (A0A9R0F5L2 1-244): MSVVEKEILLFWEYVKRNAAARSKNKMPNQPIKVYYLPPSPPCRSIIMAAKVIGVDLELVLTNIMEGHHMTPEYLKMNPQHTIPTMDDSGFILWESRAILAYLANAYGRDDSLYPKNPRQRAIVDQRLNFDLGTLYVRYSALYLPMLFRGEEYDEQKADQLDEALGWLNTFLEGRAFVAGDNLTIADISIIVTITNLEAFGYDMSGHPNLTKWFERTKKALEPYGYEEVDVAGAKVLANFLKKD
# Experiment: GSH conjugation, absorbance […] nm
# Type: biochemical
# Conditions: 4 mM GSH; CDNB 0.125 to 4 mM
compound,measurement,value
O=[N+]([O-])c1ccc(Cl)c([N+](=O)[O-])c1 [CDNB],Km,421 ± 109 µM

# — paper PMC11943115, “GSTD1 Mediates the Tolerance to Abamectin and Beta-Cypermethrin in the Fall Armyworm Spodoptera frugiperda” (Insects, 2025)
